Results from patent US9387221B2, “SDF-1 binding nucleic acids and the use thereof in cancer treatment” (NOXXON Pharma AG, priority 2010, dated 2016).
“Also recorded” adds a separate entry of the source.

Test system: biotinylated human D-SDF-1
Experiment: Competitive pull-down binding assay
Settings: aptamer level; reference 192-A10-001
Procedure: In order to compare different D-SDF-1 binding aptamers, a competitive ranking assay was performed. For this purpose the most affine aptamer available was radioactively labeled (see above) and served as reference. […] An excess of de- and renatured non-labeled D-RNA aptamer variants was added to different concentrations (e.g. 2, 10, and 50 nM) with the labeled reference aptamer to parallel binding reactions. The aptamers to be tested competed with the reference aptamer for target binding, thus decreasing the binding signal in dependence of their binding characteristics.

Row | Sequence | binding affinity in competitive pull-down binding assay vs. 192-A10-001
1 | GCUGUAAAAGUAACAAGUCAAUGAAAGGUAACUACAGC (aptamer; Made as D-RNA aptamer and L-RNA Spiegelmer, tested form not given here, further chemistry not given here) [192-E10] | Weaker binding affinity; also recorded: reduced binding affinity
2 | GCAGUGAAAGUAACAUGUCAAUGAAAGGUAACCACAGC (aptamer; Made as D-RNA aptamer and L-RNA Spiegelmer, tested form not given here, further chemistry not given here) [192-D11] | Weaker binding affinity
3 | AGCGUGAAGGGGUUAGGGCUCGAAGUCGGCUGACACGCU (Made as D-RNA aptamer and L-RNA Spiegelmer, tested form not given here, further chemistry not given here) [191-A5] | Much weaker binding affinity
4 | GCUGUGAAAGUAACAAGUCAAUGAAAGGUAACCACAGC (aptamer; Made as D-RNA aptamer and L-RNA Spiegelmer, tested form not given here, further chemistry not given here) [192-C10] | equal binding affinities; also recorded: equal binding affinity
5 | GUGUUGCGGAGGUUAGGGCUAGAAGUCGGUCAGCAGCAC (chemistry not given here) [197-H1] | weaker binding affinities
6 | GCUGUGAAAGUAACAUGUCAAUGAAAGGUAACCACUGC (aptamer; Made as D-RNA aptamer and L-RNA Spiegelmer, tested form not given here, further chemistry not given here) [192-G11] | Weaker binding affinity
7 | CGUGCGCUUGAGAUAGGGGUUAGGGCUUAAAGUCGGCUGAUUCUCACG (Made as D-RNA aptamer and L-RNA Spiegelmer, tested form not given here, further chemistry not given here) [190-A3-001] | weaker binding affinities
8 | GCUGUGAAAGUAACAUGUCAAUGAAAGGUAACCACAGC (aptamer; Made as D-RNA aptamer and L-RNA Spiegelmer, tested form not given here, further chemistry not given here) [192-G10] | Weaker binding affinity
9 | GCUGUGAAAGUAACACGUCAAUGAAAGGUAACCACAGC (aptamer; Made as D-RNA aptamer and L-RNA Spiegelmer, tested form not given here, further chemistry not given here) [192-B11] | equal binding affinities; also recorded: equal binding affinity
10 | GUGUUCCCGGGGUUAGGGCUUGAAGUCGGCCGGCAGCAC (aptamer; chemistry not fully specified) [197-B1] | Much weaker binding affinity
11 | GUGCUGUGGGGGUCAGGGCUAGAAGUCGGCCUGCAGCAC (chemistry not given here) [197-D2] | Much weaker binding affinity
12 | GCUGUGAAAGUAACAUGUCAAUGAAAGGUAGCCGCAGC (aptamer; Made as D-RNA aptamer and L-RNA Spiegelmer, tested form not given here, further chemistry not given here) [192-H9] | much weaker binding affinity

Same assay, conditions: reference 191-D5-001

Row | Sequence | binding affinity in competitive pull-down binding assay vs. 191-D5-001
13 | CGGGCGAGGUUAGGGCUAGAAGUCGGUCGACCG (Made as D-RNA aptamer and L-RNA Spiegelmer, tested form not given here, further chemistry not given here) [191-D5-004] | reduced binding affinity

Same assay, conditions: reference 191-D5-007

Row | Sequence | binding affinity in competitive pull-down binding assay vs. 191-D5-007
14 | CGGCGGGUUAGGGCUAGAAGUCGGCGCCG (chemistry not fully specified) [191-D5-024-29a] | identical binding affinity to SDF-1 as 191-D5-007

Same assay, conditions: reference 193-G2-001

Row | Sequence | binding to human SDF-1 in comparison to 193-G2-001
15 | GCGUGGUGUGAUCUAGAUGUAGUGGCUGAUCCUAGUUAGGUACGC (chemistry not fully specified) [193-D1-002] | reduced binding
16 | GCGUGGUGUGAUCUAGAUGUAAAGGCUGAUCCUAGUCAGGUACGC (chemistry not fully specified) [193-H3-002] | reduced binding
17 | GCGUGGUGUGAUCUAGAUGUAAUGGCUGAUCCUAGUCAGGGACGC (chemistry not fully specified) [193-D3-002] | reduced binding; also recorded: weaker binding affinities
18 | GCAUGGUGUGAUCUAGAUGUAGUGGCUGAUCCUAGUCAGGUGCCC (chemistry not fully specified) [193-A1-002] | reduced binding; also recorded: weaker binding affinities
19 | GCGAGGUGUGAUCUAGAUGUAGUGGCUGAUCCUAGUCAGGUGCGC (chemistry not fully specified) [193-G1-002] | reduced binding; also recorded: weaker binding affinities

Same assay, conditions: vs. 192-A10-001 and 192-A10-008

Row | Sequence | binding affinity of derivatives of 192-A10-001 in competitive pull-down binding assay
20 | GCGUGAAAGCAACAUGUCAAUGAAAGGUAGCCGCGC (chemistry not fully specified) [192-A10-008] | same binding affinity as shown for 192-A10-002
21 | AAAGCAACAUGUCAAUGAAAGGUAGC (chemistry not fully specified) [192-A10-007] | reduced binding affinity
22 | GGGCAAAGCAACAUGUCAAUGAAAGGUAGCGCCC (aptamer; chemistry not given here) [192-A10-020] | weaker, much weaker or very much weaker binding affinity
23 | GUGAAAGCAACAUGUCAAUGAAAGGUAGCCGC (chemistry not given here) [192-A10-004] | reduced binding affinity
24 | GGCCAAAGCAACAUGUCAAUGAAAGGUAGCGGCC (aptamer; chemistry not given here) [192-A10-021] | weaker, much weaker or very much weaker binding affinity
25 | UGUGAAAGCAACAUGUCAAUGAAAGGUAGCCGCA (aptamer; chemistry not given here) [192-A10-003] | reduced binding affinity
26 | UGAAAGCAACAUGUCAAUGAAAGGUAGCCG (chemistry not fully specified) [192-A10-005] | reduced binding affinity

Same assay, conditions: vs. 193-G2-001 and 193-G2-012

Row | Sequence | binding affinity of derivatives of 193-G2-001 and 193-C2-001 in competitive pull-down binding assay
27 | GUGUGAUCUAGAUGUAGUGGCUGAUCCUAGUCAGG (Listed both as L-RNA Spiegelmer and D-RNA aptamer, further chemistry not given here) [193-C2-007] | reduced binding affinity
28 | GUGGUGUGAUCUAGAUGUAGUGGCUGAUCCUAGUCAGGUAC (chemistry not fully specified) [193-C2-004] | reduced binding affinity
29 | GCGCGUGUGAUCUAGAUGUAUUGGCUGAUCCUAGUCAGGGCGC (chemistry not fully specified) [193-G2-014] | reduced binding affinity
30 | CGUGGUGUGAUCUAGAUGUAGUGGCUGAUCCUAGUCAGGUACG (chemistry not fully specified) [193-C2-003] | reduced binding affinity

Target: SDF-1 (Homo sapiens, UniProt P48061)
Sequence (P48061 22-89): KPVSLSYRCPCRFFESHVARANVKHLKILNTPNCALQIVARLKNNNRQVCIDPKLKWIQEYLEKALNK
Experiment: Inhibition of SDF-1-induced chemotaxis, Jurkat cells
Type: cell-based
Settings: Spiegelmer coupled to 40 kDa PEG at the 5′-end
Procedure: The human T cell leukemia cell line Jurkat, the human leukemic monocyte lymphoma cell line U937, the human pre-B cell leukemia cell line BV-173 and human pre-B ALL cell line Nalm-6 express CXCR4. […] All cells used were obtained from the DSMZ (Braunschweig). All cell lines were cultivated at 37° C. and 5% CO2 in RPMI 1640 medium with Glutamax (Invitrogen, Karlsruhe, Germany) which contains 10% fetal bovine serum, 100 units/ml penicillin and 100 μg/ml streptomycin (Invitrogen, Karlsruhe, Germany). One day before the experiment, cells were seeded in a new T175 flask with a density of 0.3×10^6/ml (Jurkat, U937, BV-173) or 0.75×10^6/ml (Nalm-6), respectively.
For the experiment, cells were centrifuged (5 min at 300 g), resuspended, counted and washed once with 15 ml HBH (Hanks balanced salt solution containing 1 mg/ml bovine serum albumin and 20 mM HEPES; Invitrogen, Karlsruhe, Germany). Then the cells were resuspended at 1.33×10^6/ml (Jurkat, U937, BV-173) or 2.67×10^6/ml (Nalm-6), respectively. Cells were then allowed to migrate through the porous membranes of the filter plates for three hours towards a solution containing SDF-1 and various amounts of Spiegelmer. The stimulation solutions (SDF-1+various concentrations of Spiegelmer) were made up as 10× solutions in a 0.2 ml low profile 96-tube plate. 212 μl HBH were pipetted into the lower compartments of the transport plate and 23.5 μl of the stimulation solutions were added. All conditions were made up as triplicates. After 20 to 30 min the filter plate was inserted into the plate containing the stimulation solutions and 75 μl of a cell suspension with 1.33×10^6/ml or 2.67×10^6/ml, respectively, were added to the wells of the filter plate (1×10^5 or 2×10^5 cells/well). The cells were then allowed to migrate for 3 h at 37° C. For calibration, 0, 10 and 30 μl of the cell suspension was added to 235, 225 and 205 μl HBH, respectively, in wells of a separate 96-well plate. After 3 hours incubation, the insert plate was removed and 30 μl resazurin working solution (440 μM in PBS) were added to the lower wells and to the wells of the calibration plate. The plates were then incubated at 37° C. for 2.5 h. After incubation, 100 μl of each well were transferred to a black 96 well plate.
For evaluation, fluorescence values were corrected for background fluorescence (no cells in well). Then the difference between experimental conditions with and without SDF-1 was calculated. The value for the sample without Spiegelmer (SDF-1 only) was set 100% and the values for the samples with Spiegelmer were calculated as percent of this. For a dose-response curve the percent-values were plotted against Spiegelmer concentration and the IC50-value (concentration of Spiegelmer at which 50% of the activity without Spiegelmer is present) was determined graphically from the resulting curve.

Row | Sequence | influence of the PEG-moiety on Spiegelmers potency to inhibit SDF-1 induced chemotaxis
31 | GCGUGAAAGCAACAUGUCAAUGAAAGGUAGCCGCGC (chemistry not fully specified) [192-A10-008] | no influence
